According to patent US20140128352A1, “COMPOUNDS AND METHODS FOR MODULATING MITOCHONDRIAL METABOLISM AND REACTIVE OXYGEN SPECIES PRODUCTION” (Buck Institute for Research on Aging, priority 2012, published 2014):
“Also recorded” adds a separate entry of the source. Like-named read-outs stand apart in the source and are kept apart here.

What was measured:
[1] = test system: mitochondrial membrane potential (ΔΨm); assay: Membrane potential (ΔΨm) counterscreen with TMRM; settings: malate, nigericin
[2] = test system: ubiquinone binding site of complex I (IQ); assay: High-throughput screen: ROS production from ubiquinone binding site of complex I (IQ), isolated skeletal muscle mitochondria; assay type: biochemical, rat; settings: for IQ: percent change in ROS from DMSO controls; for % Reduction in ROS production (IQ): Table 2, 5 mM succinate, compounds 2.5 μM, percent change from DMSO, positive control −100%
Method: (§1) Skeletal muscle mitochondria were isolated from 5-8 week old female Wistar rats (Harlan Laboratories). Minced muscle was homogenized in buffer containing bacterial protease Type VIII prior to differential centrifugation to separate mitochondria from other tissue components. Unless otherwise stated, freshly isolated muscle mitochondria were assayed in buffer containing 120 mM KCl, 5 mM HEPES, 1 mM EGTA, 0.3% (w/v) bovine serum albumin. Where indicated, CaCl2 was added to yield a final free concentration of 250 nM calcium at pH 7.0 at 37° C.
(§2) Compounds (10 mM in DMSO) were randomly selected from a library of 24,000 compounds obtained from ChemBridge and curated by the lab of Robert Hughes at the Buck Institute. Master screening plates were prepared using a Biomek FX liquid handling workstation (Beckman) to transfer 1 μL of each compound into individual wells on 96-well storage plates (80 compounds per plate). Master plates were sealed with foil and stored at −80° C. Just prior to use, plates were brought to room temperature and diluted 300-fold with standard buffer (13.3X=33.3 μM). To monitor the performance of each assay throughout screening and to provide intra-plate normalization reference points, DMSO negative controls and known mitochondrial inhibitor positive controls were included on each Master compound plate.
(§3) Total amounts of superoxide and H2O2 production were determined fluorometrically as H2O2, without distinguishing between them, in the presence of exogenous superoxide dismutase (25 units/mL final), horseradish peroxidase (1 unit/mL final), and Amplex UltraRed (25 μM final) as described (Affourtit, C. et al. (2012) Measurement of proton leak and electron leak in isolated mitochondria. Methods Mol. Biol. 810: 165-82). Just prior to use, a bulk 3.3X solution was made in standard buffer and distributed into a 2 mL deep well 96-well transfer plate.
To assess the effects of a compound on ROS production from the ubiquinone binding site of complex I (IQ), Start Solution containing 5 mM succinate was distributed into standard 96-well transfer plates. A Biomek FX workstation was programmed to dispense solutions into black 96-well assay plates. Solutions were dispensed to all assay plates in the following order: ROS Detection solution described in Example 3, Mitochondria solution described in Example 1 to a final concentration of 0.1 mg/ml, and Compound dilutions described in Example 2. Duplicate assay plates were made and each was initiated by the addition of 3.3X Start solution containing 5 mM succinate. Plates were incubated in the dark at room temperature for 30-40 minutes before acquiring endpoint fluorescence using a Victor 3V plate reader (Perkin Elmer) equipped with 550/590 nm excitation/emission filters.
The fluorescence values in each well were scaled as the percent change from the intra-plate DMSO controls with the appropriate inhibitor positive controls defined as −100%. Following initial scaling, intra-plate normalized values were subjected to Tukey's two-way median polish to remove row and column dependent positional effects (Malo et al, 2006).

site IQ = assay: Retest of IQ ROS production (expanded microplate panel / cuvette); assay type: biochemical, rat; settings: retest; subsaturating (0.5 mM) succinate
Method: Compounds identified as site-selective hits as well as structural analogs were re-sourced from ChemBridge and dissolved in DMSO as 80 mM stocks. Master Titration Plates were prepared manually by serially diluting 80 mM compound stocks between 0.08 and 80 mM on 96-well microplates. Four compounds were titrated in duplicate on each plate. Additional DMSO controls were interspersed across these plates to serve as local normalization controls during analysis since two-way median polishing was not appropriate. Just prior to use, compounds were diluted 100-fold with standard buffer (10X). The same known inhibitor positive controls were included on each plate as during high-throughput screening.
The five core ROS assays and single ΔΨm assay were carried out as in the initial high-throughput screen. In addition, several assays were included to help validate the specificity of the compounds for a given site of production. All compounds were titrated against separate assays targeting IQ ROS and IIIQo ROS using subsaturating (0.5 mM final) succinate. […] Specifically, ΔΨm was monitored separately with 5 mM succinate (in the presence of 4 μM rotenone) in addition to glutamate and malate as before. The use of different substrates was designed to reveal compounds that disrupt mitochondrial function in a substrate specific manner.
Most frequently, these changes involved the use of different substrates to supply electrons from an alternative entry point in the chain. If a site of ROS production is being targeted selectively by a compound, then in many cases the supply of electrons should not influence the effectiveness of this compound at suppressing ROS production. […] Alternative conditions are listed below: • 1) IQ ROS: 5 mM succinate with 1 mM glutamate • 2) IF ROS: 5 mM malate only as substrate (in the presence of 4 μM rotenone) • 3) IIIQo ROS: 5 mM succinate (in the presence of 3 mM malonate, 4 uM rotenone, and 2.5 μM antimycin A) • 4) IIIQo ROS: 25 mM glycerol phosphate (in the presence of 1 mM malonate, 4 μM rotenone, and 2.5 μM antimycin A) • 5) SDH: 0.5 mM succinate (in the presence of 4 uM rotenone, 2.5 uM antimycin A, and 2 μM myxothiazol) • 6) GPDH: Vary the concentration of glycerol phosphate in the presence or absence of 250 nM free calcium to allosterically activate GPDH (all in the presence of 4 μM rotenone, 2.5 uM antimycin A, 1 mM malonate, and 2 μM myxothiazol) • 7) ΔΨm: Vary the concentration of glycerol phosphate in the presence or absence of 250 nM free calcium to allosterically activate GPDH and in the presence or absence of 80 ng/mL nigericin (all in the presence of 4 μM rotenone)
The fluorescence values in each well were scaled in relation to the intra-plate DMSO and known inhibitor controls as in the high-throughput screen except that median values for local interspersed DMSO wells (3-6 wells) were used rather than just the 8 DMSO wells in columns 1 and 12. This normalization was applied in place of the two-way median polish used during high-throughput screening to minimize row and column effects. […] At this stage, strong candidates were not necessarily excluded from further testing if subtle off-target effects were observed (e.g. loss of specificity or signs of general inhibition at the highest concentrations). Rather, these candidates were often pursued for more detailed mechanistic studies with the expectation that subsequent structure activity analysis would provide insight into which structurally related compounds would provide the optimal specificity for a given site of production.
Candidate compounds that remained site-selective following robotics assisted retesting were subsequently tested for effects on ROS production and ΔΨm with a Varian Cary Eclipse fluorimeter (excitation 550 nm, emission at 590 nm). This experimental format allows kinetic measurements of ROS production and ΔΨm with more accurate temperature control, sample stirring, and background correction. […]

[3] = target: T1, flavin binding site of complex I (IF) (Rattus norvegicus, UniProt Q5XIH3); assay: High-throughput screen: ROS production from flavin binding site of complex I (IF); assay type: biochemical
T1 construct: freshly isolated muscle mitochondria were assayed; from tissue; host or cells: rat skeletal muscle mitochondria (Wistar, Harlan Laboratories)

[4] = target: T2, outer ubiquinone binding site of complex III (IIIQO) (Rattus norvegicus, UniProt P00159+P20788); assay: High-throughput screen: ROS production from outer ubiquinone binding site of complex III (IIIQO); assay type: biochemical
T2 construct: freshly isolated muscle mitochondria were assayed; from tissue; host or cells: rat skeletal muscle mitochondria (Wistar, Harlan Laboratories)

[5] = target: T3, succinate dehydrogenase/complex II (SDH) (Rattus norvegicus, UniProt P21913+Q641Z9+Q6PCT8+Q920L2); assay: High-throughput screen: ROS production from succinate dehydrogenase/complex II (SDH); assay type: biochemical; settings: percent change in ROS from DMSO controls
T3 construct: freshly isolated muscle mitochondria were assayed; from tissue; host or cells: rat skeletal muscle mitochondria (Wistar, Harlan Laboratories)

[6] = target: T4, glycerol-3-phosphate dehydrogenase (GPDH) (Rattus norvegicus, UniProt P35571); assay: High-throughput screen: ROS production from glycerol-3-phosphate dehydrogenase (GPDH); assay type: biochemical; parameters: inhibition: dose or concentration left out as unconfirmed; settings: for inhibition / GPDH: percent change in ROS from DMSO controls
T4 construct: The activity of GPDH in intact mitochondria (0.3 mg/mL) was measured; from tissue; host or cells: rat skeletal muscle mitochondria (Wistar, Harlan Laboratories)
T4 sequence (P35571 43-727): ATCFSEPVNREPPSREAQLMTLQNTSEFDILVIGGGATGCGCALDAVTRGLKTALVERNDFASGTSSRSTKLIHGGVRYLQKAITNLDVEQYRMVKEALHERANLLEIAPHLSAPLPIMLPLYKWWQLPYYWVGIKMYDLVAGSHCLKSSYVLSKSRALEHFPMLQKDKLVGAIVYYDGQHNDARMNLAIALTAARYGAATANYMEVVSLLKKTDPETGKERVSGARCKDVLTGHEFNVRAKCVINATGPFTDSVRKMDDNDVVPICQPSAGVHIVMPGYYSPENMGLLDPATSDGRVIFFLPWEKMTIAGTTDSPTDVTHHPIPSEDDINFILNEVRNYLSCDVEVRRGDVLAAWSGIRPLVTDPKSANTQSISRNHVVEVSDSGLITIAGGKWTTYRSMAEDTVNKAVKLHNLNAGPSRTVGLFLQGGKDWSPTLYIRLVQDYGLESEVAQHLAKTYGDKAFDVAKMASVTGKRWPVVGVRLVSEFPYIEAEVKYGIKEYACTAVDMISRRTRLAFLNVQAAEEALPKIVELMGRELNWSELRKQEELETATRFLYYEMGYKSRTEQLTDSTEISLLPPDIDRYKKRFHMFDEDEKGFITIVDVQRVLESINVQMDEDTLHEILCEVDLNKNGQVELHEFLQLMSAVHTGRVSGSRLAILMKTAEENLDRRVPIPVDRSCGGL
Method: as §1, §2, §3
To assess the effects of a compound on ROS production from glycerol-3-phosphate dehydrogenase (GPDH), Start Solution containing 25 mM glycerol phosphate, 4 μM rotenone, 2.5 μM antimycin A, 1 mM malonate, 2 μM myxothiazol was distributed into standard 96-well transfer plates. A Biomek FX workstation was programmed to dispense solutions into black 96-well assay plates. Solutions were dispensed to all assay plates in the following order: ROS Detection solution described in Example 3, Mitochondria solution described in Example 1 to a final concentration of 0.2 mg/ml, and Compound dilutions described in Example 2. Duplicate assay plates were made and each was initiated by the addition of 3.3X Start solution containing 25 mM glycerol phosphate, 4 μM rotenone, 2.5 μM antimycin A, 1 mM malonate, 2 μM myxothiazol. Plates were incubated in the dark at room temperature for 30-40 minutes before acquiring endpoint fluorescence using a Victor 3V plate reader (Perkin Elmer) equipped with 550/590 nm excitation/emission filters.
The fluorescence values in each well were scaled as the percent change from the intra-plate DMSO controls. […] Following initial scaling, intra-plate normalized values were subjected to Tukey's two-way median polish to remove row and column dependent positional effects (Malo et al., 2006).

[7] = Table 3, 5 mM glutamate, 5 mM malate, 4 μM rotenone, compounds 2.5 μM, percent change from DMSO, positive control −100%, read-out: % Reduction in ROS production (IF)
[8] = Table 7, percent change in ROS from DMSO controls, read-out: IF
[9] = Table 8, percent change in ROS from DMSO controls
[10] = Table 9, percent change in ROS from DMSO controls
[11] = Table 7, percent change in ROS from DMSO controls, read-out: IIIQO
[12] = Table 9, percent change in ROS from DMSO controls, read-out: IIIQo
[13] = Table 4, 5 mM succinate, 4 μM rotenone, 2.5 μM antimycin A, compounds 2.5 μM, percent change from DMSO, read-out: % Reduction in ROS production (IIIQO)
[14] = Table 8, percent change in ROS from DMSO controls, read-out: IF
[15] = Table 8, percent change in ROS from DMSO controls, read-out: IIIQO

T3 sequence (Q920L2 35-656): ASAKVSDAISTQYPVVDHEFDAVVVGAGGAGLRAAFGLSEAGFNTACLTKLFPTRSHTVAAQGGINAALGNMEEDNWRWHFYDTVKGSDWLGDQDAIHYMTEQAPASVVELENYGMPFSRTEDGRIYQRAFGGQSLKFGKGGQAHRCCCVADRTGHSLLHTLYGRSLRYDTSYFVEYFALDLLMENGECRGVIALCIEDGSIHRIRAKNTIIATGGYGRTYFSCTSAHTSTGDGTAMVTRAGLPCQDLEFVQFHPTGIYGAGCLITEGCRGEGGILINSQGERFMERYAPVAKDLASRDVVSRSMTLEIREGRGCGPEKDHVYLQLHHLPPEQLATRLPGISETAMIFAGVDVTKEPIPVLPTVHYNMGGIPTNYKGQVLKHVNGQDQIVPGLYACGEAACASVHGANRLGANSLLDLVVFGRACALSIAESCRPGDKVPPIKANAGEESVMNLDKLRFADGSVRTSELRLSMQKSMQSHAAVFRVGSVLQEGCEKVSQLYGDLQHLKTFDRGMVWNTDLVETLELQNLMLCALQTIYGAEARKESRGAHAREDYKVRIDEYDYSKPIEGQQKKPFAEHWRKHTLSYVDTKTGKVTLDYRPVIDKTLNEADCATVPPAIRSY
T3 sequence (P21913 31-282): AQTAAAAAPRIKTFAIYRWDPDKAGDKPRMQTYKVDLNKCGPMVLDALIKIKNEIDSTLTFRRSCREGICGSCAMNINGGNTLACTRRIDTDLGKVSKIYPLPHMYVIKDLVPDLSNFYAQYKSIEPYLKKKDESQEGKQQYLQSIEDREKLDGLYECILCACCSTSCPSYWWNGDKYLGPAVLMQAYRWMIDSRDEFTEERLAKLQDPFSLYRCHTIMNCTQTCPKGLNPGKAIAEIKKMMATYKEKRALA
T3 sequence (Q641Z9 30-169 limits assumed): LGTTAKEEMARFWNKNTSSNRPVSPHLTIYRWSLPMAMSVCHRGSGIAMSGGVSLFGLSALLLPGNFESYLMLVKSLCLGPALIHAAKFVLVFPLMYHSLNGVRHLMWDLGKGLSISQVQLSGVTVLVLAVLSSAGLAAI
T3 sequence (Q6PCT8 57-159): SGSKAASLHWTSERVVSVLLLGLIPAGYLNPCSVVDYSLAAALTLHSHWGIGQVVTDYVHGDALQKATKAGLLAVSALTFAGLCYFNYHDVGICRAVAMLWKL
T1 sequence (Q5XIH3 21-464 limits assumed, one chain of several): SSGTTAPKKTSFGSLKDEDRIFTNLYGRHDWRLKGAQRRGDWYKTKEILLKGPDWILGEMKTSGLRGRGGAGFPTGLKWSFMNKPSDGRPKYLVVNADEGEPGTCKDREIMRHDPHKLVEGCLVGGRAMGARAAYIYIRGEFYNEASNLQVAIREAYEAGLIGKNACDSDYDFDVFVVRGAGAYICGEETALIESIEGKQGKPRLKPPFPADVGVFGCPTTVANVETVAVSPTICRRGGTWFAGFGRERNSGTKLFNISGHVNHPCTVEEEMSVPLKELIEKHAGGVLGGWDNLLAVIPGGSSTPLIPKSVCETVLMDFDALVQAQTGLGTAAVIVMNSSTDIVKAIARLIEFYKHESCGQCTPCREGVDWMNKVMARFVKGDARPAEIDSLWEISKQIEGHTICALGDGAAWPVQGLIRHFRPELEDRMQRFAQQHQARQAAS

Row | inhibition at 2.5 µM [4, 11] | IIIQO [4, 9] | inhibition at 2.5 µM [4, 12] | inhibition at 2.5 µM ([5]; Table 7) | SDH ([5]; Table 8) | SDH ([5]; Table 9) | inhibition ([6]; Table 7) | GPDH ([6]; Table 8) | GPDH ([6]; Table 9) | inhibition at 2.5 µM [4, 13] | SMILES | ΔΨm ([1]; Table 8, glutamate) | ΔΨm ([1]; Table 9, glutamate) | IQ ([2]; Table 7) | IQ ([2]; Table 8) | IQ ([2]; Table 9) | inhibition at 2.5 µM [3, 7] | inhibition at 2.5 µM [3, 8] | IF [3, 9] | IF [3, 10] | % Reduction in ROS production (IQ) [2] | other results
1 | 3.2% | −3.2 | 3.2% | 0.1% | −0.1 | −0.1 | 2.4% | −2.4 | −2.4 | – | CN(C)CCN(Cc1ccccc1)Cc1ccc(C(F)(F)F)cc1 [Compound 29] | −0.6 | −0.6 | −2.1 | −2.1 | −2.1 | 18.1% | 18.1% | −18.1 | −18.1 | – | effect on IQ ROS with subsaturating substrate (site IQ): strong effects on IQ ROS with subsaturating substrate; also recorded: stronger off-target effects on IQ ROS when driven by low concentration succinate
2 | 24.1% | −24.1 | 24.1% | -0.7% | 0.7 | 0.7 | 0.3% | −0.3 | −0.3 | 24.1% | Fc1ccc(SCCc2ccccn2)cc1 [Compound 42] | 0.4 | 0.4 | 7.9 | 7.9 | 7.9 | – | 2.6% | −2.6 | −2.6 | – | –
3 | -0.2% | 0.2 | -0.2% | 0.1% | −0.1 | −0.1 | -0.5% | 0.5 | 0.5 | – | Cc1ccccc1NS(=O)(=O)c1ccc(-c2ccc(S(=O)(=O)Nc3ccccc3C)cc2)cc1 [Compound 12] | −0.5 | −0.5 | −20.7 | −20.7 | −20.7 | – | 1.7% | −1.7 | −1.7 | −20.7% | –
4 | – | – | – | – | – | – | – | – | – | 12% | CCC1CCCCN1C/C=C/c1ccc(N(C)C)cc1 (centres unmarked) [Compound 80] | 0 | – | – | 0 | – | 23% | – | – | – | – | inhibition at 2.5 µM [3, 14]: 23%; inhibition at 2.5 µM [4, 15]: 12%; inhibition at 2.5 µM ([5]; Table 8): -4%; inhibition at 2.5 µM ([6]; Table 6, 25 mM glycerol phosphate, rotenone, antimycin A, malonate, myxothiazol, compounds 2.5 μM, scaled to IQ positive controls, read-out: % Reduction in ROS Production (GPDH)): 11%; inhibition ([6]; Table 8): 11%
5 | 9.9% | −9.9 | 9.9% | -1.7% | 1.7 | 1.7 | 1.8% | −1.8 | −1.8 | – | Cc1ccc(C(C)C)c(OCC(O)CN2CCN(Cc3ccccc3)CC2)c1.Cl.Cl (centres unmarked) [Compound 21] | −0.3 | −0.3 | 0.0 | 0.0 | 0.0 | 23% | 23% | −23.0 | −23.0 | – | –
6 | – | – | – | – | – | – | – | – | – | 30% | Clc1ccc(C(NC2CCN(Cc3ccccc3)CC2)c2ccccc2)cc1 (centres unmarked) [Compound 78] | −1 | – | – | 2 | – | 37% | – | – | – | – | inhibition at 2.5 µM [3, 14]: 37%; inhibition at 2.5 µM [4, 15]: 30%; inhibition at 2.5 µM ([5]; Table 8): 5%; inhibition ([6]; Table 8): 6%
7 | – | – | – | – | – | – | – | – | – | 15% | c1ccc(C2CCC(Nc3ccc4c(c3)OCO4)CC2)cc1 (centres unmarked) [Compound 77] | 1 | – | – | −18 | – | – | – | – | – | −18% | inhibition at 2.5 µM [3, 14]: 6%; inhibition at 2.5 µM [4, 15]: 15%; inhibition at 2.5 µM ([5]; Table 8): 0%; inhibition ([6]; Table 8): -1%
8 | -1% | 1.0 | -1% | 6.8% | −6.8 | −6.8 | 0.1% | −0.1 | −0.1 | – | CC(C)(C)C1=NN(c2c(Cl)cc(Cl)cc2Cl)C(=O)C1 [Compound 3] | 1.2 | 1.2 | −52.4 | −52.4 | −52.4 | – | -0.5% | 0.5 | 0.5 | −52.4% | –
